Laboratory results published in ChEMBL document CHEMBL1201862, “PubChem BioAssay data set” (2004).
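Method: 48-hour compound exposure of cells in 96-well plates, five concentrations, linear interpolation of endpoints. The concentration for 50% growth inhibition is given as GI50.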 Calls of active or inactive are those of the source. Rule as the data show it: active = GI50 up to about 1.1 µM and inactive = higher.

Columns and labels:
Assay in all cases: growth of human tumour cells (NCI), 48 h
OVCAR-8 = system: OVCAR-8
PC-3 = system: PC-3
K562 = system: K562
SNB-75 = system: SNB-75
MOLT-4 = system: MOLT-4
RPMI-8226 = system: RPMI-8226
COLO 205 = system: COLO 205
MDA-MB-435 = system: MDA-MB-435
OVCAR-3 = system: OVCAR-3
SF-539 = system: SF-539
SW-620 = system: SW-620
HT-29 = system: HT-29
MDA-N = system: MDA-N
SR = system: SR
BT-549 = system: BT-549
ACHN = system: ACHN
UO-31 = system: UO-31
UACC-257 = system: UACC-257
Hs-578T = system: Hs-578T

Measured: GI50

Cn1c2ccccc2c(=O)c2ccc(Cl)cc21
inactive: OVCAR-8 > 10 µM | PC-3 > 10 µM | K562 > 10 µM | SNB-75 8.97 µM | MOLT-4 > 10 µM | RPMI-8226 > 10 µM | COLO 205 > 10 µM | MDA-MB-435 > 10 µM | OVCAR-3 > 10 µM | SF-539 2.51 µM | SW-620 > 10 µM | HT-29 > 10 µM | MDA-N > 10 µM | SR > 10 µM

N#CCCN(CCCN(C(=O)Nc1ccccc1)c1ccccc1)C(=O)Nc1ccccc1
inactive: BT-549 > 100 µM | OVCAR-8 > 100 µM | PC-3 73.3 µM | K562 54.3 µM | SNB-75 44.8 µM | ACHN > 100 µM | MOLT-4 32.6 µM | RPMI-8226 53 µM | COLO 205 > 100 µM | MDA-MB-435 > 100 µM | UO-31 58.3 µM | OVCAR-3 > 100 µM | SF-539 > 100 µM | SW-620 > 100 µM | HT-29 > 100 µM | MDA-N > 100 µM | SR > 100 µM | UACC-257 > 100 µM

C[C@@H](c1ccccc1)N1CO[C@@]2(C#Cc3ccc4c(c3)OCO4)CCC[C@@H]12
inactive: OVCAR-8 14 µM | PC-3 12.4 µM | K562 13.8 µM | SNB-75 13.9 µM | Hs-578T 15.9 µM | ACHN > 100 µM | MOLT-4 9.59 µM | RPMI-8226 11.2 µM | COLO 205 15.8 µM | MDA-MB-435 13.7 µM | UO-31 14.4 µM | HT-29 16.6 µM | MDA-N 17.3 µM | SR 8.67 µM | UACC-257 17.5 µM

CCOC(=O)c1nc2ccccc2nc1Nc1cc(OC)c(OC)c(OC)c1
inactive: BT-549 > 100 µM | K562 > 100 µM | SNB-75 43.6 µM | Hs-578T 92.9 µM | ACHN > 100 µM | MOLT-4 > 100 µM | RPMI-8226 > 100 µM | COLO 205 > 100 µM | MDA-MB-435 > 100 µM | UO-31 > 100 µM | OVCAR-3 > 100 µM | SF-539 > 100 µM | HT-29 > 100 µM | MDA-N > 100 µM | SR > 100 µM

CC1=C(\C=C/C(C)=C/C=C/C(C)=C/C=C/C=C(C)\C=C\C=C(C)/C=C/C2=C(C)CCCC2(C)C)C(C)(C)CCC1
inactive: BT-549 64.4 µM | OVCAR-8 > 100 µM | PC-3 > 100 µM | K562 > 100 µM | SNB-75 > 100 µM | Hs-578T 88.9 µM | ACHN > 100 µM | MOLT-4 > 100 µM | COLO 205 52.6 µM | MDA-MB-435 68.9 µM | UO-31 > 100 µM | OVCAR-3 > 100 µM | SW-620 > 100 µM | HT-29 56.4 µM | MDA-N 40 µM | UACC-257 > 100 µM

O=C(OCc1ccccc1CN1CCOCC1)c1ccc(Br)cc1
inactive: BT-549 74.8 µM | OVCAR-8 85.1 µM | PC-3 85.5 µM | SNB-75 > 100 µM | Hs-578T 69.3 µM | ACHN > 100 µM | RPMI-8226 22.1 µM | COLO 205 74.6 µM | MDA-MB-435 31 µM | UO-31 95.7 µM | OVCAR-3 31.8 µM | SF-539 > 100 µM | SW-620 > 100 µM | HT-29 20.5 µM | UACC-257 43.2 µM
active: K562 0.0209 µM

CCP(=O)(OC)C1=CCN(C(=O)OCC[Si](C)(C)C)CC1 (stereo not drawn)
inactive: OVCAR-8 > 100 µM | PC-3 > 100 µM | K562 > 100 µM | SNB-75 > 100 µM | Hs-578T > 100 µM | ACHN > 100 µM | MOLT-4 > 100 µM | RPMI-8226 > 100 µM | COLO 205 > 100 µM | MDA-MB-435 > 100 µM | UO-31 > 100 µM | OVCAR-3 > 100 µM | SF-539 72.9 µM | SW-620 > 100 µM | HT-29 > 100 µM | MDA-N > 100 µM | UACC-257 > 100 µM

C#CCn1c(=O)[nH]c(=O)c2cccnc21
inactive: SNB-75 > 100 µM | ACHN > 100 µM | MOLT-4 > 100 µM | RPMI-8226 > 100 µM | COLO 205 > 100 µM | SW-620 > 100 µM | SR > 100 µM | UACC-257 > 100 µM

S=C(Nc1cc(Cl)c(Cl)cc1Cl)SCc1ccccc1
active: SR 0.0129 µM
inactive: BT-549 26.2 µM | OVCAR-8 20.1 µM | PC-3 32 µM | K562 18.5 µM | SNB-75 39.3 µM | Hs-578T 34.3 µM | ACHN 20.5 µM | MOLT-4 22.8 µM | RPMI-8226 21 µM | COLO 205 34.9 µM | MDA-MB-435 19.8 µM | UO-31 40.6 µM | OVCAR-3 21.8 µM | SF-539 23.1 µM | SW-620 35.2 µM | HT-29 20.8 µM | UACC-257 19 µM

O=C(Cn1c(=O)oc2ccc(C(=O)c3cccc(Cl)c3)cc21)c1ccccc1
inactive: BT-549 18.1 µM | OVCAR-8 > 100 µM | PC-3 > 100 µM | K562 57.8 µM | SNB-75 25.1 µM | Hs-578T > 100 µM | ACHN > 100 µM | MOLT-4 49.4 µM | RPMI-8226 > 100 µM | COLO 205 33.9 µM | MDA-MB-435 > 100 µM | UO-31 99.8 µM | OVCAR-3 > 100 µM | SF-539 > 100 µM | SW-620 65.6 µM | HT-29 29.9 µM | SR 36.3 µM | UACC-257 19.5 µM

O=C(/C=C/c1ccc(Cl)cc1)c1cccs1
inactive: OVCAR-8 21.7 µM | PC-3 18.2 µM | K562 4.03 µM | SNB-75 22.5 µM | Hs-578T 36 µM | ACHN 20 µM | MOLT-4 15.7 µM | RPMI-8226 3.1 µM | COLO 205 19.3 µM | MDA-MB-435 13 µM | UO-31 18 µM | SF-539 34.3 µM | SW-620 12.9 µM | HT-29 16.5 µM | MDA-N 16.3 µM | SR 6.24 µM | UACC-257 19.6 µM

O=C(NI1OC(=O)c2ccccc21)c1ccc(Cl)cc1
inactive: BT-549 > 100 µM | OVCAR-8 > 100 µM | PC-3 > 100 µM | K562 28.4 µM | SNB-75 > 100 µM | ACHN > 100 µM | RPMI-8226 > 100 µM | COLO 205 > 100 µM | MDA-MB-435 > 100 µM | UO-31 43.2 µM | OVCAR-3 > 100 µM | SF-539 > 100 µM | SW-620 34.4 µM | HT-29 > 100 µM | UACC-257 > 100 µM

COc1ccc(N2C(=O)/C(=C/c3ccc(N(CCC#N)CCC#N)cc3)N=C2c2ccccc2)c(OC)c1
inactive: BT-549 > 100 µM | OVCAR-8 28.5 µM | K562 18.1 µM | SNB-75 89.5 µM | Hs-578T 50.6 µM | ACHN > 100 µM | MOLT-4 28.2 µM | RPMI-8226 29 µM | COLO 205 > 100 µM | MDA-MB-435 > 100 µM | UO-31 > 100 µM | OVCAR-3 98.4 µM | SF-539 40.4 µM | SW-620 > 100 µM | HT-29 > 100 µM | MDA-N > 100 µM | SR 22.4 µM | UACC-257 > 100 µM

CN(C)c1ccc(/C=C2\N=C(c3ccccc3)N(c3nc4ccc(Sc5ccccc5)cc4[nH]3)C2=O)cc1
inactive: BT-549 34.9 µM | OVCAR-8 43 µM | PC-3 39.1 µM | K562 26.4 µM | SNB-75 53.2 µM | Hs-578T 35.2 µM | ACHN 81.8 µM | MOLT-4 30.2 µM | RPMI-8226 24.8 µM | COLO 205 21.6 µM | MDA-MB-435 16.7 µM | UO-31 59.3 µM | OVCAR-3 27.4 µM | SW-620 34.6 µM | HT-29 32.4 µM | UACC-257 24.3 µM

N#Cc1nc(C(CO)N(Cc2ccccc2)C(=O)O)oc1N (stereo not drawn)
inactive: BT-549 > 100 µM | OVCAR-8 > 100 µM | PC-3 > 100 µM | K562 > 100 µM | SNB-75 > 100 µM | ACHN > 100 µM | MOLT-4 > 100 µM | RPMI-8226 > 100 µM | COLO 205 > 100 µM | MDA-MB-435 > 100 µM | UO-31 > 100 µM | OVCAR-3 > 100 µM | SF-539 > 100 µM | HT-29 > 100 µM | SR > 100 µM | UACC-257 > 100 µM

CCC1(O)CC(OC2CC(N(C)C)C(OC3CC(O)C(OC4OC(C)C(=O)C=C4N)C(C)O3)C(C)O2)c2c(cc3c(c2O)C(=O)c2c(O)cccc2C3=O)C1C(=O)OC (stereo not drawn)
active: OVCAR-8 0.00415 µM | PC-3 0.00566 µM | K562 < 0.001 µM | SNB-75 0.0402 µM | Hs-578T 0.12 µM | ACHN 0.0206 µM | MOLT-4 0.0015 µM | RPMI-8226 0.00153 µM | COLO 205 0.00429 µM | MDA-MB-435 0.00583 µM | UO-31 0.167 µM | OVCAR-3 0.129 µM | SF-539 0.0501 µM | SW-620 < 0.001 µM | HT-29 0.00889 µM | MDA-N 0.00682 µM | SR 0.00625 µM | UACC-257 0.0211 µM

C=C(C)C1CC=C(C)C(=O)C1 (stereo not drawn) [CARVONE]
inactive: OVCAR-8 > 100 µM | PC-3 > 100 µM | K562 > 100 µM | SNB-75 > 100 µM | Hs-578T > 100 µM | ACHN > 100 µM | MOLT-4 > 100 µM | RPMI-8226 > 100 µM | COLO 205 > 100 µM | MDA-MB-435 > 100 µM | UO-31 > 100 µM | OVCAR-3 > 100 µM | SF-539 > 100 µM | SW-620 > 100 µM | HT-29 > 100 µM | MDA-N > 100 µM | SR > 100 µM | UACC-257 > 100 µM
